Reference: US20200109114A1, “SOLID STATE FORMS OF N-[2-[(I S)-1 -(3-ETHOXY-4-METHOXYPHENYL)-2-(METHYL SULFONYL)ETHYL]-2,3-DIHYDRO-1,3-DIOXO-L H-ISOINDOL-4-YL]ACETAMIDE AND PROCESS FOR PREPARATION THEREOF” (MSN LABORATORIES PRIVATE LIMITED, R&D CENTER, priority 2016, published 2020)

Experiments:
[1] = Solid state stability of crystalline form-M at various conditions (stress, UV light, thermal, humidity); type: physicochemical
Protocol: The crystalline form-M of the present invention is stable at various conditions viz.,
a) Stress (10 ton pressure, 3 min) b) UV light (254 nm, 24 hrs) c) Thermal (60° C., 24 hrs) d) Hygroscopicity (75% RH, 24 hrs))

[2] = Hygroscopicity of crystalline form-M; type: physicochemical
Excerpt: The crystalline form-M of compound of formula-1 of the present invention is non-hygroscopic in nature which is highly advantageous for the formulators.

With CCOc1cc([C@@H](CS(C)(=O)=O)N2C(=O)c3cccc(NC(C)=O)c3C2=O)ccc1OC [crystalline form-M, N-[2-[(1S)-1-(3-ethoxy-4-methoxyphenyl)-2-(methylsulfonyl)ethyl]-2,3-dihydro-1,3-dioxo-1H-isoindol-4-yl]acetamide] the “stability under hygroscopicity condition” value ([1]; Hygroscopicity (75% RH, 24 hrs)) was “stable”, the stability under stress ([1]; Stress (10 ton pressure, 3 min)) was “stable” and the thermal stability ([1]; Thermal (60° C., 24 hrs)) was “stable”. The “stability under UV light” value ([1]; UV light (254 nm, 24 hrs)) was “stable” and the hygroscopic nature [2] was “non-hygroscopic”.
